Like-named read-outs stand apart in the source and are kept apart here.
How the values were obtained:
[1] = Analytical RP-HPLC retention time on C-18 column as indicator of polarity; type: physicochemical; conditions: chromatographic, YMC-Pack ODS-A C18 (5 µm, 120 Å) 150 × 4.6 mm; gradient 5% B 2 min, 5%–100% B 20 min; A 0.1% TFA in water, B 0.1% TFA in acetonitrile/water 80/20; 1 mL/min; UV 220 nm
Text: Cationic membrane active peptides and their INH-derivatives were synthesized in good yields, using previously described methods. Peptides were characterized with their monoisotopic molecular mass (M), retention time on a C-18 RP-HPLC column (Rt), estimated hydrophilicity values (H) and net charge (z) (see Table 1). Peptides are listed according to their retention times, which are the indicator of their polarity. […] This order of peptides’ polarity is almost equal to the relative hydrophilicity estimated from the amino acid composition. […] That might be the result of decreased charge due to INH coupling at the N-terminal, although the addition of INH molecule is expected to increase the polarity of the conjugate.
Purified peptides were analyzed by RP-HPLC, on an analytical C-18 column, using gradient elution with the abovementioned eluent A and B (flow rate was 1 mL/min, UV detection at λ = 220 nm). Molecular mass of the peptides was determined on a Thermo Scientific Q Exactive™ Focus Hybrid Quadrupole-Orbitrap™ Mass Spectrometer (ThermoFisher Scientific, Waltham, MA, USA).

EBC-1 cells = type: cell-based, human
[2] = AFM imaging of penetrated DPPC+mycolic acid lipid layer; type: physicochemical; conditions: DPPC+mycolic acid film, AFM cross-section profiles
[3] = AFM imaging of penetrated DPPC lipid layer; type: physicochemical; conditions: DPPC monolayer, AFM cross-section profiles
Text: At the end of the membrane affinity measurements, the penetrated monolayers were transferred to a previously cleaned cover glass, to study the structural changes of the membranes by atomic force microscopy (Figure 5 and Figure 6). The surface of the original DPPC and mixed DPPC+mycolic acid monolayer is rather smooth, with a morphology described by typical roughness values presented in Table 2. (Ra is the average deviation of all points from a mean level over the evaluation area. Rq (RMS) is the root mean square roughness, while Rz is the average absolute value of the five highest peaks and the five lowest valleys over the evaluation area, being sensitive to positive or negative extremes of the image.) Well-defined homogenous lipid islands are formed by the ordered lipid molecules in equilibrium with the less-oriented film with smaller surface density as expected from the surface pressure–area isotherm. Comparing to this, the morphology of the penetrated monolayers was changed. The 3D images provide a visual impression on the surface, while the cross-section profiles allow the measurement of the height differences. […] This morphological change can also be expressed by the roughness factors determined by analyzing the AFM images (Table 2).
Penetrated Langmuir monolayers were transferred to a previously cleaned hydrophilic cover glass for atomic microscopy measurements. […]

[4] = system: Mycobacterium tuberculosis H37Rv in infected MonoMac-6 human monocytes; type: cell-based

| Substance | Rt, retention time on C-18 RP-HPLC column (indicator of polarity) [1] | also measured |
| --- | --- | --- |
| INH-RAGLQFPVGRVHRLLRK [INH–Buforin II (5–21), isoniazid conjugated to the N-terminus of Buforin II (5–21) via glyoxylic acid linker] | 11.0 | – |
| INH-GIGKFLHSAKKFGKAFVGEIMNS [INH–Magainin II, isoniazid conjugated to the N-terminus of Magainin II via glyoxylic acid linker] | 13.3 | – |
| TKPKGTKPKGTKPKGTKPKG [OT20, synthetic oligomer of Tuftsin, cationic carrier peptide] | 6.7 | – |
| RQIKIWFQNRRMKWKK [Penetratin, cell-penetrating peptide] | 10.9 | Subcellular localization (EBC-1 cells; Cf-labeled peptides, 60 min incubation, EBC-1 cells, confocal microscopy): diffused intracellular distribution |
| Transportan | – | Subcellular localization (EBC-1 cells): mostly vesicular localization |
| RAGLQFPVGRVHRLLRK [Buforin II (5–21), antimicrobial peptide isolated from amphibians] | 10.9 | – |
| CM15 | 13.7 | – |
| INH-KRLFKKLLFSLRKY [INH–Dhvar4, isoniazid conjugated to the N-terminus of Dhvar4 via glyoxylic acid linker] | 12.8 | – |
| INH-RQIKIWFQNRRMKWKK [INH–Penetratin, isoniazid conjugated to the N-terminus of Penetratin via glyoxylic acid linker] | 11.5 | Height of aggregates / vertical deviation in penetrated layer [2]: exceeding 3 nm; Height of aggregates / protrusions in penetrated layer [3]: 1–3 nm; Intracellular antitubercular activity [4]: efficient candidate against intracellular Mycobacterium tuberculosis |
| KRLFKKLLFSLRKY [Dhvar4, synthetic derivative of Histatin, a salivary histidine-rich cationic AMP] | 11.8 | – |
| INH-TKPKGTKPKGTKPKGTKPKG [INH–OT20, isoniazid conjugated to the N-terminus of OT20 via glyoxylic acid linker] | 7.0 | – |
| GIGKFLHSAKKFGKAFVGEIMNS [Magainin II, antimicrobial peptide isolated from amphibians] | 12.8 | – |

Source: paper PMC7139830, “Drug Conjugation Induced Modulation of Structural and Membrane Interaction Features of Cationic Cell-Permeable Peptides” (International Journal of Molecular Sciences, 2020)
